Reference: paper PMC8373216, “Development and Preclinical Evaluation of New Inhaled Lipoglycopeptides for the Treatment of Persistent Pulmonary Methicillin-Resistant Staphylococcus aureus Infections” (Antimicrobial Agents and Chemotherapy, 2021)
In brackets after ≈: the same amount, converted by molar mass. Where two headings read alike, the source gives them in different places.

Columns and labels:
[1] = test system: MSSA ATCC 29213; experiment: In-house broth microdilution MIC screening; type: cell-based; conditions: Staphylococcus aureus, read-out: MIC Value, MSSA ATCC 29213
[2] = test system: Staphylococcus epidermidis; experiment: Expanded panel broth microdilution MIC/MBC; type: cell-based; conditions: for MIC: Staphylococcus epidermidis
[3] = test system: Staphylococcus hominis; experiment: Expanded panel broth microdilution MIC; type: cell-based
[4] = test system: Enterococcus faecalis; experiment: Expanded panel broth microdilution MIC/MBC; type: cell-based
[5] = test system: Streptococcus pneumoniae; experiment: Expanded panel broth microdilution MIC/MBC; type: cell-based
[6] = test system: Streptococcus pyogenes; experiment: Expanded panel broth microdilution MIC/MBC; type: cell-based
[7] = test system: Streptococcus dysgalactiae; experiment: Expanded panel broth microdilution MIC/MBC; type: cell-based; conditions: for MIC: Streptococcus dysgalactiae
[8] = test system: Streptococcus anginosus; experiment: Expanded panel broth microdilution MIC/MBC; type: cell-based; conditions: for MIC: Streptococcus anginosus
[9] = test system: Streptococcus mitis; experiment: Expanded panel broth microdilution MIC/MBC; type: cell-based; conditions: for MIC: Streptococcus mitis
[10] = test system: Cutibacterium acnes; experiment: Expanded panel broth microdilution MIC; type: cell-based
[11] = test system: Eggerthella lenta; experiment: Expanded panel broth microdilution MIC; type: cell-based
[12] = test system: E. coli; experiment: Expanded panel broth microdilution MIC; type: cell-based; conditions: Escherichia coli
[13] = test system: K. pneumoniae; experiment: Expanded panel broth microdilution MIC; type: cell-based
[14] = test system: P. mirabilis; experiment: Expanded panel broth microdilution MIC; type: cell-based; conditions: Proteus mirabilis, ATCC43071
[15] = test system: P. vulgaris; experiment: Expanded panel broth microdilution MIC; type: cell-based; conditions: Proteus vulgaris
[16] = test system: E. cloacae; experiment: Expanded panel broth microdilution MIC; type: cell-based; conditions: Enterobacter cloacae
[17] = test system: C. freundii; experiment: Expanded panel broth microdilution MIC; type: cell-based; conditions: Citrobacter freundii
[18] = test system: S. marcescens; experiment: Expanded panel broth microdilution MIC; type: cell-based; conditions: Serratia marcescens, ATCC43862
[19] = test system: Pseudomonas aeruginosa; experiment: Expanded panel broth microdilution MIC; type: cell-based
[20] = test system: Burkholderia cepacia; experiment: Expanded panel broth microdilution MIC; type: cell-based
[21] = test system: Acinetobacter baumannii; experiment: Expanded panel broth microdilution MIC; type: cell-based
[22] = test system: Haemophilus influenzae; experiment: Expanded panel broth microdilution MIC; type: cell-based
[23] = test system: H. parainfluenzae; experiment: Expanded panel broth microdilution MIC; type: cell-based; conditions: Haemophilus parainfluenzae
[24] = test system: Moraxella catarrhalis; experiment: Expanded panel broth microdilution MIC; type: cell-based
[25] = test system: S. aureus; experiment: Expanded panel broth microdilution MIC/MBC; conditions: for MIC: Staphylococcus aureus
[26] = test system: MRSA ATCC BAA 1556 (USA300) biofilm; experiment: MRSA biofilm killing, MBEC assay system, TSB with 1% human plasma

CN[C@H](CC(C)C)C(=O)N[C@H]1C(=O)N[C@@H](CC(N)=O)C(=O)N[C@H]2C(=O)N[C@H]3C(=O)N[C@H](C(=O)N[C@H](C(=O)O)c4cc(O)cc(O)c4-c4cc3ccc4O)[C@H](O)c3ccc(c(Cl)c3)Oc3cc2cc(c3O[C@@H]2O[C@H](CO)[C@@H](O)[C@H](O)[C@H]2O[C@H]2C[C@](C)(N)[C@H](O)[C@H](C)O2)Oc2ccc(cc2Cl)[C@H]1O [Vancomycin, vancomycin]
MIC [1]: 1 µg/mL (≈ 0.69 µM)
MIC:MBC ([2]; S. epidermidis MRSE, MBC on one organism): 1
MIC ([2]; ATCC49134, S. epidermidis ATCC 49134, MSSE): 0.5 µg/mL (≈ 0.345 µM)
MIC ([2]; MRSE, S. epidermidis MMX 762, MRSE): 1 µg/mL (≈ 0.69 µM)
MIC ([2]; MRSE, S. epidermidis MMX 5145, MRSE): 1 µg/mL (≈ 0.69 µM)
MIC ([2]; MRSE, read-out: MIC (median), S. epidermidis MRSE, 2 isolates): 1 µg/mL (≈ 0.69 µM)
MIC ([2]; S. epidermidis MSSE, 1 isolate): 0.5 µg/mL (≈ 0.345 µM)
MIC [3]: 0.5 µg/mL (≈ 0.345 µM)
MIC ([3]; ATCC27844): 0.5 µg/mL (≈ 0.345 µM)
MIC:MBC ([4]; E. faecalis VSE, MBC on one organism): >8
MIC ([4]; E. faecalis VanA VRE, 1 isolate): 128 µg/mL (≈ 88.3 µM)
MIC ([4]; Enterococcus faecalis): 1 µg/mL (≈ 0.69 µM)
MIC ([4]; Enterococcus faecalis, ATCC29212): 2 µg/mL (≈ 1.38 µM)
MIC ([4]; Enterococcus faecalis, VRE): 128 µg/mL (≈ 88.3 µM)
MIC ([4]; Enterococcus faecalis, read-out: MIC (median)): 1.5 µg/mL (≈ 1.04 µM)
MIC:MBC ([5]; S. pneumoniae PISP, MBC on one organism): 8
MIC ([5]; S. pneumoniae PRSP, 1 isolate): 0.25 µg/mL (≈ 0.173 µM)
MIC ([5]; Streptococcus pneumoniae): 0.12 µg/mL (≈ 0.0828 µM)
MIC ([5]; Streptococcus pneumoniae, ATCC49619): 1 µg/mL (≈ 0.69 µM)
MIC ([5]; Streptococcus pneumoniae, PRSP): 0.25 µg/mL (≈ 0.173 µM)
MIC ([5]; Streptococcus pneumoniae, read-out: MIC (median)): 0.6 µg/mL (≈ 0.414 µM)
MIC ([6]; S. pyogenes MMX 946, ermR): 0.25 µg/mL (≈ 0.173 µM)
MIC:MBC ([6]; S. pyogenes ermR): 1
MIC ([6]; Streptococcus pyogenes): 0.25 µg/mL (≈ 0.173 µM)
MIC ([6]; Streptococcus pyogenes, ATCC19615): 0.25 µg/mL (≈ 0.173 µM)
MIC ([6]; Streptococcus pyogenes, read-out: MIC (median)): 0.25 µg/mL (≈ 0.173 µM)
MIC:MBC ([7]; S. dysgalactiae, MBC on one organism): >8
MIC ([7]; S. dysgalactiae MMX 5121): 0.25 µg/mL (≈ 0.173 µM)
MIC ([7]; S. dysgalactiae MMX 5123): 0.25 µg/mL (≈ 0.173 µM)
MIC ([7]; S. dysgalactiae MMX 5124): 0.25 µg/mL (≈ 0.173 µM)
MIC ([7]; read-out: MIC (median), S. dysgalactiae, 3 isolates): 0.25 µg/mL (≈ 0.173 µM)
MIC:MBC ([8]; S. anginosus AGS): >8
MIC [8]: 0.5 µg/mL (≈ 0.345 µM)
MIC ([8]; ATCC33397): 0.5 µg/mL (≈ 0.345 µM)
MIC:MBC ([9]; S. mitis MGS, MBC on one organism): 1
MIC [9]: 0.25 µg/mL (≈ 0.173 µM)
MIC ([9]; ATCC49456): 0.25 µg/mL (≈ 0.173 µM)
MIC ([9]; read-out: MIC (median)): 0.25 µg/mL (≈ 0.173 µM)
MIC ([10]; ATCC6919): 0.25 µg/mL (≈ 0.173 µM)
MIC ([10]; ATCC11827): 0.12 µg/mL (≈ 0.0828 µM)
MIC ([10]; read-out: MIC (median)): 0.19 µg/mL (≈ 0.131 µM)
MIC [11]: 0.5 µg/mL (≈ 0.345 µM)
MIC ([11]; ATCC43055): 0.5 µg/mL (≈ 0.345 µM)
MIC [12]: > 64 µg/mL
MIC ([12]; ATCC25922): > 64 µg/mL
MIC ([13]; K. pneumoniae MMX 4679, KPC-2): > 64 µg/mL
MIC ([13]; Klebsiella pneumoniae): > 64 µg/mL
MIC [14]: > 64 µg/mL
MIC [15]: > 64 µg/mL
MIC ([16]; ATCC49141): > 64 µg/mL
MIC ([16]; ATCCBAA1143): > 64 µg/mL
MIC [17]: > 64 µg/mL
MIC [18]: > 64 µg/mL
MIC [19]: > 64 µg/mL
MIC ([19]; ATCC27853): > 64 µg/mL
MIC [20]: > 64 µg/mL
MIC ([21]; A. baumannii MMX 6974, colistinR): > 64 µg/mL
MIC ([21]; Acinetobacter baumannii): > 64 µg/mL
MIC ([21]; Acinetobacter baumannii, NCTC13304): > 64 µg/mL
MIC [22]: 64 µg/mL (≈ 44.2 µM)
MIC ([22]; ATCC49247): > 64 µg/mL
MIC [23]: 64 µg/mL (≈ 44.2 µM)
MIC [24]: 16 µg/mL (≈ 11 µM)
MIC ([24]; ATCC8176): 32 µg/mL (≈ 22.1 µM)
MIC ([24]; ATCC8193): 64 µg/mL (≈ 44.2 µM)
MIC:MBC ([25]; S. aureus MRSA, MBC median of n = 5): 1
MIC:MBC ([25]; S. aureus MSSA, MBC on one organism): 1
MIC:MBC ([25]; S. aureus VISA, MBC median of n = 2): 4
MIC (median) ([25]; S. aureus VRSA, 12 isolates (JMI Laboratories)): >64 µg/mL
MIC:MBC ([25]; S. aureus hVISA, MBC on one organism): 1
MIC ([25]; ATCC13709 / MSSA, S. aureus ATCC 13709, MSSA): 1 µg/mL (≈ 0.69 µM)
MIC ([25]; ATCC29213 / MSSA, S. aureus ATCC 29213, MSSA): 1 µg/mL (≈ 0.69 µM)
MIC ([25]; ATCC43300 / MRSA, S. aureus ATCC 43300, MRSA): 1 µg/mL (≈ 0.69 µM)
MIC ([25]; ATCCBAA1556|MRSA|USA300, S. aureus ATCC BAA-1556, MRSA, USA300 (expanded panel)): 0.5 µg/mL (≈ 0.345 µM)
MIC ([25]; ATCCBAA1756|MRSA|NRS384|USA300, S. aureus NRS 384, ATCC BAA-1756, MRSA, USA300): 0.5 µg/mL (≈ 0.345 µM)
MIC ([25]; MRSA / NRS123 / USA400, S. aureus NRS123, MRSA, USA400): 0.5 µg/mL (≈ 0.345 µM)
MIC ([25]; MRSA / NRS725 / USA300, S. aureus NRS725, MRSA, USA300): 0.5 µg/mL (≈ 0.345 µM)
MIC ([25]; MRSA / USA300, S. aureus MMX 3982, MRSA, USA300): 0.5 µg/mL (≈ 0.345 µM)
MIC ([25]; MRSA, S. aureus MMX 7899, MRSA): 0.5 µg/mL (≈ 0.345 µM)
MIC ([25]; MRSA, S. aureus MMX 7900, MRSA): 0.5 µg/mL (≈ 0.345 µM)
MIC ([25]; MRSA, S. aureus MMX 7901, MRSA): 0.5 µg/mL (≈ 0.345 µM)
MIC ([25]; MRSA, S. aureus MMX 7902, MRSA): 0.5 µg/mL (≈ 0.345 µM)
MIC ([25]; MRSA, S. aureus MMX 7903, MRSA): 0.5 µg/mL (≈ 0.345 µM)
MIC ([25]; MRSA, read-out: MIC (median), S. aureus MRSA, 12 isolates): 0.5 µg/mL (≈ 0.345 µM)
MIC ([25]; MSSA, S. aureus MMX 7907, MSSA): 0.5 µg/mL (≈ 0.345 µM)
MIC ([25]; MSSA, S. aureus MMX 7908, MSSA): 0.5 µg/mL (≈ 0.345 µM)
MIC ([25]; MSSA, read-out: MIC (median), S. aureus MSSA, 4 isolates): 0.75 µg/mL (≈ 0.518 µM)
MIC ([25]; NRS1 / VISA, S. aureus NRS1, VISA, Mu50): 4 µg/mL (≈ 2.76 µM)
MIC ([25]; NRS2, S. aureus NRS2, hVISA;Mu3): 1 µg/mL (≈ 0.69 µM)
MIC ([25]; NRS4 / VISA, S. aureus NRS4, VISA): 4 µg/mL (≈ 2.76 µM)
MIC ([25]; NRS13 / VISA, S. aureus NRS13, VISA): 2 µg/mL (≈ 1.38 µM)
MIC ([25]; NRS22 / VISA, S. aureus NRS22, VISA): 4 µg/mL (≈ 2.76 µM)
MIC ([25]; NRS23, S. aureus NRS23, hVISA): 2 µg/mL (≈ 1.38 µM)
MIC ([25]; NRS52 / VISA, S. aureus NRS52, VISA): 1 µg/mL (≈ 0.69 µM)
MIC ([25]; VISA, read-out: MIC (median), S. aureus VISA, 5 isolates): 4 µg/mL (≈ 2.76 µM)
MIC ([25]; VRSA, read-out: MIC (median), S. aureus VRSA, 12 isolates (JMI Laboratories)): > 64 µg/mL
MIC ([25]; read-out: MIC (median), S. aureus hVISA, 2 isolates): 1.5 µg/mL (≈ 1.04 µM)
Maximum reduction in MRSA biofilm titer relative to control ([26]; MBEC, 512 μg/ml): 1.1 log10 CFU/peg
Concentrations with statistically significant reduction versus control biofilm ([26]; MBEC, two-way ANOVA, Bonferroni): ≥ 16 µg/mL
Reduction in MRSA biofilm titer ([26]; plasma-supplemented MBEC assay, dose not stated): ~1 log10 CFU/peg
